How the values were obtained:
[1] = official classification: non-sensitizer, irritant, or sensitizing Extreme/Strong/Moderate/Weak; cited from earlier work
[2] = system: genes specific for sensitization (BRAK, CTSS, DAPK2, FABP4, HSP27, IL18, HSP90, IL1R2, TPSAB1, CXCR1, DEFB1, DHFR, EHF, IVL, KRT4, MELANA, NGAL, PDZK1IP1, PI3 …); assay: Expression of the other (non-ARE) sensitization-specific genes in EPISKIN reconstructed skin (quantitative RT-PCR); format: cell-based, human

Oc1ccc(O)cc1 [Hydroquinone]
Class [1]: S
BRAK expression compared to control ([2]; 0.1%): 0.7
BRAK grade (NUMBER OF GENES) ([2]; 0.1%): 0 (if this expression is lower, the grade is 0)
CTSS expression compared to control ([2]; 0.1%): 0.7
CTSS grade (NUMBER OF GENES) ([2]; 0.1%): 0 (if this expression is lower, the grade is 0)
CXCR1 expression compared to control ([2]; 0.1%): 2.9
CXCR1 grade (NUMBER OF GENES) ([2]; 0.1%): 1 (If the expression is greater than 1.3 compared to the control, a grade of 11s given)
DAPK2 expression compared to control ([2]; 0.1%): 1.1
DAPK2 grade (NUMBER OF GENES) ([2]; 0.1%): 0 (if this expression is lower, the grade is 0)
DEFB1 expression compared to control ([2]; 0.1%): 1.7
DEFB1 grade (NUMBER OF GENES) ([2]; 0.1%): 1 (If the expression is greater than 1.3 compared to the control, a grade of 11s given)
DHFR expression compared to control ([2]; 0.1%): 0.4
DHFR grade (NUMBER OF GENES) ([2]; 0.1%): 0 (if this expression is lower, the grade is 0)
EHF expression compared to control ([2]; 0.1%): 1.2
EHF grade (NUMBER OF GENES) ([2]; 0.1%): 0 (if this expression is lower, the grade is 0)
FABP4 expression compared to control ([2]; 0.1%): 1.1
FABP4 grade (NUMBER OF GENES) ([2]; 0.1%): 0 (if this expression is lower, the grade is 0)
HSP27 expression compared to control ([2]; 0.1%): 0.8
HSP27 grade (NUMBER OF GENES) ([2]; 0.1%): 0 (if this expression is lower, the grade is 0)
HSP90 expression compared to control ([2]; 0.1%): 1.3
HSP90 grade (NUMBER OF GENES) ([2]; 0.1%): 0 (if this expression is lower, the grade is 0)
IL18 expression compared to control ([2]; 0.1%): 0.8
IL18 grade (NUMBER OF GENES) ([2]; 0.1%): 0 (if this expression is lower, the grade is 0)
IVL expression compared to control ([2]; 0.1%): 1.6
IVL grade (NUMBER OF GENES) ([2]; 0.1%): 1 (If the expression is greater than 1.3 compared to the control, a grade of 11s given)
KRT4 expression compared to control ([2]; 0.1%): 2.0
KRT4 grade (NUMBER OF GENES) ([2]; 0.1%): 1 (If the expression is greater than 1.3 compared to the control, a grade of 11s given)
MELANA expression compared to control ([2]; 0.1%): 0.7
MELANA grade (NUMBER OF GENES) ([2]; 0.1%): 0 (if this expression is lower, the grade is 0)
NGAL expression compared to control ([2]; 0.1%): 1.5
NGAL grade (NUMBER OF GENES) ([2]; 0.1%): 1 (If the expression is greater than 1.3 compared to the control, a grade of 11s given)
P13 expression compared to control ([2]; 0.1%): 1.1
P13 grade (NUMBER OF GENES) ([2]; 0.1%): 0 (if this expression is lower, the grade is 0)
PDZK1iP1 expression compared to control ([2]; 0.1%): 1.2
PDZK1iP1 grade (NUMBER OF GENES) ([2]; 0.1%): 0 (if this expression is lower, the grade is 0)
SENS >1.3 (NUMBER OF GENES) ([2]; 0.1%): 2
SERPINB3 expression compared to control ([2]; 0.1%): 1.1
SERPINB3 grade (NUMBER OF GENES) ([2]; 0.1%): 0 (if this expression is lower, the grade is 0)
TOTAL SENS (NUMBER OF GENES) ([2]; 0.1%): 5
BRAK expression compared to control ([2]; 1%): 0.8
BRAK grade (NUMBER OF GENES) ([2]; 1%): 0 (if this expression is lower, the grade is 0)
CTSS expression compared to control ([2]; 1%): 1.2
CTSS grade (NUMBER OF GENES) ([2]; 1%): 0 (if this expression is lower, the grade is 0)
CXCR1 expression compared to control ([2]; 1%): 2.8
CXCR1 grade (NUMBER OF GENES) ([2]; 1%): 1 (If the expression is greater than 1.3 compared to the control, a grade of 11s given)
DAPK2 expression compared to control ([2]; 1%): 1.2
DAPK2 grade (NUMBER OF GENES) ([2]; 1%): 0 (if this expression is lower, the grade is 0)
DEFB1 expression compared to control ([2]; 1%): 1.1
DEFB1 grade (NUMBER OF GENES) ([2]; 1%): 0 (if this expression is lower, the grade is 0)
DHFR expression compared to control ([2]; 1%): 0.8
DHFR grade (NUMBER OF GENES) ([2]; 1%): 0 (if this expression is lower, the grade is 0)
EHF expression compared to control ([2]; 1%): 1.1
EHF grade (NUMBER OF GENES) ([2]; 1%): 0 (if this expression is lower, the grade is 0)
FABP4 expression compared to control ([2]; 1%): 1.1
FABP4 grade (NUMBER OF GENES) ([2]; 1%): 0 (if this expression is lower, the grade is 0)
HSP27 expression compared to control ([2]; 1%): 0.9
HSP27 grade (NUMBER OF GENES) ([2]; 1%): 0 (if this expression is lower, the grade is 0)
HSP90 expression compared to control ([2]; 1%): 1.1
HSP90 grade (NUMBER OF GENES) ([2]; 1%): 0 (if this expression is lower, the grade is 0)
IL18 expression compared to control ([2]; 1%): 0.8
IL18 grade (NUMBER OF GENES) ([2]; 1%): 0 (if this expression is lower, the grade is 0)
IVL expression compared to control ([2]; 1%): 1.5
IVL grade (NUMBER OF GENES) ([2]; 1%): 1 (If the expression is greater than 1.3 compared to the control, a grade of 11s given)
KRT4 expression compared to control ([2]; 1%): 1.5
KRT4 grade (NUMBER OF GENES) ([2]; 1%): 1 (If the expression is greater than 1.3 compared to the control, a grade of 11s given)
MELANA expression compared to control ([2]; 1%): 0.7
MELANA grade (NUMBER OF GENES) ([2]; 1%): 0 (if this expression is lower, the grade is 0)
NGAL expression compared to control ([2]; 1%): 1.7
NGAL grade (NUMBER OF GENES) ([2]; 1%): 1 (If the expression is greater than 1.3 compared to the control, a grade of 11s given)
P13 expression compared to control ([2]; 1%): 1.2
P13 grade (NUMBER OF GENES) ([2]; 1%): 0 (if this expression is lower, the grade is 0)
PDZK1iP1 expression compared to control ([2]; 1%): 1.0
PDZK1iP1 grade (NUMBER OF GENES) ([2]; 1%): 0 (if this expression is lower, the grade is 0)
SENS >1.3 (NUMBER OF GENES) ([2]; 1%): 5
SERPINB3 expression compared to control ([2]; 1%): 1.0
SERPINB3 grade (NUMBER OF GENES) ([2]; 1%): 0 (if this expression is lower, the grade is 0)
TOTAL SENS (NUMBER OF GENES) ([2]; 1%): 5
BRAK expression compared to control ([2]; 10%): 0.8
